Experimental data published in patent US5103018A, “Mitomycin derivatives” (Kyowa Hakko Kogyo Kabushiki Kaisha, priority 1986, dated 1992).
In brackets after ≈: the same amount, converted by molar mass.

Assays:
[1] = system: Sarcoma 180 solid tumour; assay: animal or person; assay type: in vivo, mice (ddy strain); conditions: for ED50: Mus musculus, Sarcoma-180, ip, 168 h, read-out: ED50 ip
From the text: (§1) Certain compounds were selected from Compounds I. The following Table 4 indicates anti-tumour activity against Sarcoma 180 solid tumour (ED50), acute toxicity (LD50) and effects on the peripheral leucocytes (WBC4000) of each compound.
(1) Effect against Sarcoma 180 solid tumour:
5×10^6 cells of Sarcoma 180 solid tumour cells were abdominally implanted into male mice of ddy strain. 7 days after this, ascites cells were sampled. The cells were washed once with a sterilized physiological solution of sodium chloride and were used to prepare a cell suspension containing 5×10^7 cells per ml. On each occasion, 0.1 ml of the cell suspension was subcutaneously implanted into the right armpit of a male mouse (ddy strain; body weight 20±2 g). 24 hours after the implantation of the tumour cells, the test compound which was dissolved in a physiological solution of sodium chloride with or without addition of Tween 80 was abdominally administered to each mouse of a group consisting of 5 animals at a does of 0.1-0.2 ml. The anti-tumour activity was determined as follows:
7 days after the implantation, the major axis (a) and the minor axis (b) of the tumour were measured to calculate a value of "a×b^2 /2" which corresponds to the volume of the tumour. The anti-tumour activity was expressed by T/C viz. the ratio of the volume of the tumours (T) of the group of animals administered with the test compound to the corresponding volume of tumours (C) of the untreated animals.
(2) Determination of ED50 :
The term ED50 denotes the administered amount needed for reducing the volume of Sarcoma 180 solid tumours in the animals to 50% on the basis of the corresponding volume of Sarcoma 180 solid tumours in control (untreated) animals.
On graph paper, T/C was indicated by an arithmetic scale on the longitudinal axis and the administered amount of test compound was indicated by a logarithmic scale on the lateral axis.

[2] = Acute toxicity; assay type: in vivo, mice (ddy); conditions: mouse, in vivo, ip; for LD50 at 336 h: ddy mice, single i.p., 14 days, Behren Korber's method; for selectivity ratio: read-out: (C.I.)* = (LD50/ED50)/[(LD50/ED50) of MMC1]
Experimental: as §1
Each animal of the test group consisting of 5 ddy mice was once administered (i.p.) with a test compound. […] The LD50 was determined by Behren Korber's method.

[3] = in vivo; assay type: in vivo, mice (ddy strain); conditions: mouse, in vivo, ip; read-out: (WBC4000/ED50)* = (WBC4000/ED50)/[(WBC4000/ED50) of MMC1]
Experimental: as §1
(4) Effect upon the number of the peripheral leucocytes:
Sarcoma 180 solid tumour cells (5×10^6) were subcutaneously implanted into the right armpit of each mouse (body weight 20±2 g) of a group consisting of 5 male mice (ddy strain). 24 hours after implantation,a test compound was abdominally administered to each mouse. 4 days later, blood (each 0.02 ml) was collected from the suborbital plexus vein of each tumour-carrying mouse. The collected sample of blood was dispersed in 9.98 ml of Cell-kit Seven solution. One drop of saponin solution was added to the sample to dissolve erythrocytes and then a microcell counter was used to measure the number of leucocytes. On graph paper, the number of leucocytes was indicated on the y-axis by an arithmetic scale and the does of the test compound was indicated on the x-axis by a logarithmic scale.
The relationship between the number of peripheral leucocytes and the dosage of the test compound was plotted to obtain WBC4000 viz. the dosage corresponding to […] per mm^3 (about half of the number of leucocytes of normal mice).

[4] = system: Streptococcus faecalis ATCC 10541; assay: Minimum inhibitory concentration, agar dilution method, SF; assay type: cell-based; conditions: Enterococcus faecalis, ATCC10541, pH 7, read-out: minimum inhibitory concentration, SF
From the text: (§2) Certain Compounds I were selected. Table 3 indicates their anti-bacterial activities in terms of their minimum inhibitory concentration (μg/ml), determined by the agar dilution method effected at a pH of 7.0. In this table, the microorganisms used are abbreviated as follows:
SF: Streptococcus faecalis ATCC 10541

[5] = system: Staphylococcus aureus ATCC 6583P; assay: Minimum inhibitory concentration, agar dilution method, SA; assay type: cell-based; conditions: Staphylococcus aureus, ATCC6583P, pH 7, read-out: minimum inhibitory concentration, SA
From the text: as §2
SA: Staphylococcus aureus ATCC 6583P

Row | Compound | ED50 ip ([1]; ddy mice, i.p. 24 h after implantation, 50% reduction of tumour volume at day 7) [mg/kg] | ED50 [1] [mg/kg] | LD50 at 336 h [2] [mg/kg] | selectivity ratio [2] | selectivity ratio [3] | MIC [4] [mg/L] | MIC [5] [mg/L]
1 | 7-N-[2-[[2-[[(1S)-5-amino-1-carboxypentyl]carbamoyl]ethyl]dithio]ethyl]mitomycin C [Compound 23] | 6.2 | – | – | – | – | – | –
2 | CC1=C(NCCSSCCNC(=O)C[C@H](N)C(=O)O)C(=O)C2=C(C1=O)N1C[C@H]3[C@H](N3C)[C@]1(O)[C@H]2COC(N)=O (stereo partly drawn) [Compound 10, 7-N-[2-[[2-(N^4 -L-asparagino)ethyl]dithio]ethyl]mitomycin D] | – | 13 | 75 | 2.19 | 2.5 | – | –
3 | CC1=C(NCCSSCCNC(=O)CC[C@@H](N)C(=O)O)C(=O)C2=C(C1=O)N1C[C@H]3[C@H](N3C)[C@]1(O)[C@H]2COC(N)=O (stereo partly drawn) [Compound 11, 7-N-[2-[[2-(N^5 -D-glutamino)ethyl]dithio]ethyl]mitomycin D] | – | 16.9 | 75 | 1.59 | 1.64 | – | –
4 | CC1=C(NCCSSCCNC(=O)[C@@H]2CCC(=O)N2)C(=O)C2=C(C1=O)N1C[C@H]3[C@H](N3C)[C@]1(O)[C@H]2COC(N)=O (stereo partly drawn) [Compound 12, 7-N-[2-[[2-(L-pyroglutamylamino)ethyl]dithio]ethyl]mitomycin D] | – | 18.4 | 75 | 1.8 | 5.57 | – | –
5 | CO[C@@]12[C@H](COC(N)=O)C3=C(C(=O)C(C)=C(NCCSSCCNC(=O)[C@@H]4CCCN4)C3=O)N1C[C@@H]1N[C@@H]12 [Compound 13, 7-N-[2-[[2-(L-prolylamino)ethyl]dithio]ethyl]mitomycin C] | – | 12.2 | 30 | 1.17 | 2.3 | – | –
6 | CO[C@@]12[C@H](COC(N)=O)C3=C(C(=O)C(C)=C(NCCSSCCNC(=O)CCC(=O)Oc4c(C)c(C)c5c(c4C)CC[C@@](C)(CCC[C@H](C)CCC[C@H](C)CCCC(C)C)O5)C3=O)N1C[C@@H]1N[C@@H]12 [Compound 16] | – | 95.9 | > 100 | > 0.37 | 1.2 | – | –
7 | CC1=C(NCCSSCCNC=O)C(=O)C2=C(C1=O)N1C[C@H]3[C@H](N3C)[C@]1(O)[C@H]2COC(N)=O (stereo partly drawn) [Compound 18, 7-N-[2-[(2-formamidoethyl)dithio]ethyl]mitomycin D] | – | 10.6 | 52.5 | 1.94 | 3.89 | – | –
8 | CO[C@@]12[C@H](COC(N)=O)C3=C(C(=O)C(C)=C(NCCSSCCNC(=O)C(F)(F)F)C3=O)N1C[C@@H]1N[C@@H]12 [Compound 19, 7-N-[2-[(2-trifluoroacetamidoethyl)dithio]ethyl]mitomycin C] | – | 8.7 | 9.4 | 0.51 | > 0.96 | – | –
9 | CC1=C(NCCSSCCNC(=O)C(F)(F)F)C(=O)C2=C(C1=O)N1C[C@H]3[C@H](N3C)[C@]1(O)[C@H]2COC(N)=O (stereo partly drawn) [Compound 20, 7-N-[2-[(2-trifluoroacetamidoethyl)dithio]ethyl]mitomycin D] | – | 11.6 | 30 | 0.93 | 4.4 | – | –
10 | CO[C@@]12[C@H](COC(N)=O)C3=C(C(=O)C(C)=C(NCCSSCCC(=O)N[C@@H](CCCN)C(=O)O)C3=O)N1C[C@@H]1N[C@@H]12 [Compound 22, 7-N-[2-[[2-[[(1S)-4-amino-1-carboxybutyl]carbamoyl]ethyl]dithio]ethyl]mitomycin C] | – | 5 | – | – | – | – | –
11 | CC1=C(NCCSSCCC(=O)N[C@@H](CCCN)C(=O)O)C(=O)C2=C(C1=O)N1C[C@H]3[C@H](N3C)[C@]1(O)[C@H]2COC(N)=O (stereo partly drawn) [Compound 24, 7-N-[2-[[2-[[(1S)-4-amino-1-carboxybutyl]carbamoyl]ethyl]dithio]ethyl]mitomycin D] | – | 31.2 | > 100 | > 1.53 | 2.02 | – | –
12 | CC1=C(NCCSSCCC(=O)N[C@@H](CCCCN)C(=O)O)C(=O)C2=C(C1=O)N1C[C@H]3[C@H](N3C)[C@]1(O)[C@H]2COC(N)=O (stereo partly drawn) [Compound 25, 7-N-[2-[[2-[[(1S)-5-amino-1-carboxypentyl]carbamoyl]ethyl]dithio]ethyl]mitomycin D] | – | 46.6 | > 100 | > 1.02 | 1.59 | – | –
13 | CCOC(=O)CNC(=O)CCSSCCNC1=C(C)C(=O)C2=C(C1=O)[C@@H](COC(N)=O)[C@@]1(OC)[C@H]3N[C@H]3CN21 [Compound 29, 7-N-[2-[[2-[[(ethoxycarbonyl)methyl]carbamoyl]ethyl]dithio]ethyl]mitomycin C] | – | 9.4 | 33.8 | 1.77 | 2.9 | – | –
14 | CCOC(=O)CNC(=O)C(C)SSCCNC1=C(C)C(=O)C2=C(C1=O)[C@@H](COC(N)=O)[C@@]1(OC)[C@H]3N[C@H]3CN21 (stereo partly drawn) [Compound 30, 7-N-[2-[[1-[[(ethoxycarbonyl)methyl]carbamoyl]ethyl]dithio]ethyl]mitomycin C] | – | 10.3 | – | – | – | – | –
15 | CO[C@@]12[C@H](COC(N)=O)C3=C(C(=O)C(C)=C(NCCSSCCC(=O)NCCc4ccc(O)c(O)c4)C3=O)N1C[C@@H]1N[C@@H]12 [Compound 31, 7-N-[2-[[2-[[2-(3,4-dihydroxyphenyl)ethyl]carbamoyl]ethyl]dithio]ethyl]mitomycin C] | – | 7.1 | 26.3 | 1.15 | 2.28 | – | –
16 | CO[C@@]12[C@H](COC(N)=O)C3=C(C(=O)C(C)=C(NCCSSCCOC(=O)/C=C(C)/C=C/C=C(C)/C=C/C4=C(C)CCCC4(C)C)C3=O)N1C[C@@H]1N[C@@H]12 [Compound 35, 7-N-[2-[[2-(retinoyloxy)ethyl]dithio]ethyl]mitomycin C] | – | – | – | – | – | 10 (≈ 13.3 µM) | 5 (≈ 6.64 µM)
17 | CO[C@@]12[C@H](COC(N)=O)C3=C(C(=O)C(C)=C(NCCSSCCS(=O)(=O)O)C3=O)N1C[C@@H]1N[C@@H]12 [Compound 36, 7-N-[2-[(2-sulfoethyl)dithio]ethyl]mitomycin C] | – | 7 | – | – | – | – | –
18 | CO[C@@]12[C@H](COC(N)=O)C3=C(C(=O)C(C)=C(NCCSSCc4c[nH]c(=O)[nH]c4=O)C3=O)N1C[C@@H]1N[C@@H]12 [Compound 37, 7-N-[2-[[(2,4-dioxopyrimidin-5-yl)methyl]dithio]ethyl]mitomycin C] | – | 16.4 | – | – | – | – | –
19 | CC1=C(NCCSSCc2c[nH]c(=O)[nH]c2=O)C(=O)C2=C(C1=O)N1C[C@H]3[C@H](N3C)[C@]1(O)[C@H]2COC(N)=O (stereo partly drawn) [Compound 38, 7-N-[2-[[(2,4-dioxopyrimidin-5-yl)methyl]dithio]ethyl]mitomycin D] | – | 24.5 | > 150 | > 2.26 | > 8.71 | – | –
20 | CC1=C(NCCSSCc2cn([C@H]3C[C@H](O)[C@@H](CO)O3)c(=O)[nH]c2=O)C(=O)C2=C(C1=O)N1C[C@H]3[C@H](N3C)[C@]1(O)[C@H]2COC(N)=O (stereo partly drawn) [Compound 40, 7-N-[2-[[(2'-deoxyuridin-5-yl)methyl]dithio]ethyl]mitomycin D] | – | 104 | ≥ 200 | 1.22 | 0.95 | – | –
